Activity calls are given as the source filed them. The rule behind the calls is not given here.
How the values were obtained:
NCI-H460 [1] = test: Induction of apoptosis in human NCI-H460 cells assessed as necrotic cells at 10 uM measured after 48 hrs by annexin V-FITC/PI staining based flow cytometry analysis (reference value: 2.47%); format: functional
A549 [2] = test: Induction of apoptosis in human A549 cells assessed as viable cells at 30 uM measured after 48 hrs by annexin V-FITC/PI staining based flow cytometry analysis (reference value: 80.26%); format: functional; details: read-out: Activity
NCI-H460 [3] = test: Downregulation of P38 phosphorylation expression in human NCI-H460 cells at 10 to 30 uM by Western blot analysis; format: functional, cell-based; details: dose 10-30 µM
NCI-H460 [4] = test: Antiproliferative activity against human NCI-H460 cells assessed as inhibition of cell growth incubated for 48 hrs by MTT assay; format: functional, cell-based
NCI-H460 [5] = test: Downregulation of AKT phosphorylation expression in human NCI-H460 cells at 10 to 30 uM by Western blot analysis; format: functional, cell-based; details: dose 10-30 µM
A549 [6] = test: Induction of apoptosis in human A549 cells assessed as early apoptotic cells at 30 uM measured after 48 hrs by annexin V-FITC/PI staining based flow cytometry analysis (reference value: 0.59%); format: functional
A549 [7] = test: Upregulation of Bax protein expression in human A549 cells at 10 to 30 uM by Western blot analysis; format: functional, cell-based; details: dose 10-30 µM
A549 [8] = test: Inhibition of cell migration in human A549 cells at 10 to 30 uM measured after 24 hrs by wound healing assay relative to control; format: functional; details: dose 10-30 µM
A549 [9] = test: Antiproliferative activity against human A549 cells assessed as inhibition of cell growth incubated for 48 hrs by MTT assay; format: functional, cell-based
A549 [10] = test: Induction of apoptosis in human A549 cells assessed as necrotic cells at 30 uM measured after 48 hrs by annexin V-FITC/PI staining based flow cytometry analysis (reference value: 4.03%); format: functional
NCI-H460 [11] = test: Induction of cell cycle arrest in human NCI-H460 cells assessed as accumulation of cells as S phase at 30 uM measured after 24 hrs by propidium iodide staining based flow cytometry analysis (reference value: 7.09%); format: functional
Lewis lung carcinoma [12] = test: Antitumor activity against mouse Lewis lung carcinoma cell line xenografted in C57BL/6 mouse model assessed as reduction in tumor volume at 10 to 20 mg/kg, ip measured every three days for 15 days by vernier caliper analysis; format: functional, organism-based; details: dose 10-20 mg/kg, time 15.0 day
A549 [13] = test: Downregulation of cyclin B1 protein expression in human A549 cells at 10 to 30 uM by Western blot analysis; format: functional, cell-based; details: dose 10-30 µM
A549 [14] = test: Induction of cell cycle arrest in human A549 cells assessed as accumulation of cells as S phase at 10 uM measured after 24 hrs by propidium iodide staining based flow cytometry analysis (reference value: 19.57%); format: functional
NCI-H460 [15] = test: Induction of cell cycle arrest in human NCI-H460 cells assessed as accumulation of cells as G1 phase at 30 uM measured after 24 hrs by propidium iodide staining based flow cytometry analysis (reference value: 84.54%); format: functional
A549 [16] = test: Induction of apoptosis in human A549 cells assessed as late apoptotic cells at 30 uM measured after 48 hrs by annexin V-FITC/PI staining based flow cytometry analysis (reference value: 15.12%); format: functional
A549 [17] = test: Induction of apoptosis in human A549 cells assessed as necrotic cells at 10 uM measured after 48 hrs by annexin V-FITC/PI staining based flow cytometry analysis (reference value: 4.03%); format: functional
A549 [18] = test: Downregulation of ERK phosphorylation expression in human A549 cells at 10 to 30 uM by Western blot analysis; format: functional, cell-based; details: dose 10-30 µM
Lewis lung carcinoma [19] = test: Antitumor activity against mouse Lewis lung carcinoma cell line xenografted in C57BL/6 mouse model assessed as downregulation of CDK1 expression at 10 to 20 mg/kg by Western blot analysis; format: functional, organism-based; details: dose 10-20 mg/kg
NCI-H460 [20] = test: Induction of cell cycle arrest in human NCI-H460 cells assessed as accumulation of cells as G2 phase at 30 uM measured after 24 hrs by propidium iodide staining based flow cytometry analysis (reference value: 8.37%); format: functional
A549 [21] = test: Downregulation of CDK1 protein expression in human A549 cells at 10 to 30 uM by Western blot analysis; format: functional, cell-based; details: dose 10-30 µM
A549 [22] = test: Induction of cell cycle arrest in human A549 cells assessed as accumulation of cells as G2 phase at 30 uM measured after 24 hrs by propidium iodide staining based flow cytometry analysis (reference value: 8.69%); format: functional
A549 [23] = test: Inhibition of colony formation in human A549 cells at 10 uM measured after 48 hrs by giemsa staining based analysis relative to control; format: functional
A549 [24] = test: Upregulation of Bax/Bcl2 ratio in human A549 cells at 10 to 30 uM by Western blot analysis; format: functional, cell-based; details: dose 10-30 µM
NCI-H460 [25] = test: Upregulation of Bax protein expression in human NCI-H460 cells at 10 uM by Western blot analysis; format: functional, cell-based
NCI-H460 [26] = test: Induction of apoptosis in human NCI-H460 cells assessed as viable cells at 30 uM measured after 48 hrs by annexin V-FITC/PI staining based flow cytometry analysis (reference value: 91.81%); format: functional; details: read-out: Activity
NCI-H460 [27] = test: Downregulation of ERK phosphorylation expression in human NCI-H460 cells at 10 to 30 uM by Western blot analysis; format: functional, cell-based; details: dose 10-30 µM
A549 [28] = test: Downregulation of P38 phosphorylation expression in human A549 cells at 10 to 30 uM by Western blot analysis; format: functional, cell-based; details: dose 10-30 µM
NCI-H460 [29] = test: Downregulation of CDK1 protein expression in human NCI-H460 cells at 30 uM by Western blot analysis; format: functional, cell-based
NCI-H460 [30] = test: Induction of apoptosis in human NCI-H460 cells assessed as viable cells at 10 uM measured after 48 hrs by annexin V-FITC/PI staining based flow cytometry analysis (reference value: 91.81%); format: functional; details: read-out: Activity

In the case of `CC(C(=O)NCCC[Se]C(F)(F)F)c1ccc(-c2ccccc2)c(F)c1` (configuration not stated), the Activity (NCI-H460 [1]) is reported as 1.67%, the viability at 30 µM (A549 [2]) is reported as 55% and the Activity (NCI-H460 [3]) is reported as “Active”. For the same molecule, the IC50 (NCI-H460 [4]; NCI-H460, 48 h) was 78.2 µM, the Activity (NCI-H460 [4]; dose 3-300 µM) was “Dose-Dependent Effect” and the Activity (NCI-H460 [5]) was “Active”. For the same molecule, the Activity (A549 [6]) was 1.13%, the Activity (A549 [7]) was “Active” and the “inhibition (INH)” value (A549 [8]) was 62.9%. The IC50 (A549 [9]; A549, 48 h) was 41.9 µM, the Activity (A549 [9]; dose 3-300 µM) was “Dose-Dependent Effect” and the Activity (A549 [10]) was 8.86%. The Activity (NCI-H460 [11]) was 11.14%, the Activity (Lewis lung carcinoma [12]) was “Active” and the Activity (A549 [13]) was “Active”. It also gave an Activity (A549 [14]) of 13.83%, an Activity (NCI-H460 [15]) of 5.73% and an Activity (A549 [16]) of 35.06%. The Activity (A549 [17]) was 3.99%, the Activity (A549 [18]) was “Active” and the Activity (Lewis lung carcinoma [19]) was “Active”. The Activity (NCI-H460 [20]) was 83.13%, the Activity (A549 [21]) was “Active” and the Activity (A549 [22]) was 39.92%. The inhibition at 10 µM (A549 [23]) was 45%, the Activity (A549 [24]) was “Active” and the Activity (NCI-H460 [25]) was “Active”. The viability at 30 µM (NCI-H460 [26]) was 74%, the Activity (NCI-H460 [27]) was “Active” and the Activity (A549 [28]) was “Active”. The Activity (NCI-H460 [29]) was “Active” and the viability at 10 µM (NCI-H460 [30]) was 91%.
